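Where inhibition never reached the appropriate level, the endpoint shown equals the highest concentration tested. Otherwise, values were interpolated linearly from a five-concentration, 48-hour dose response in 96-well plates. The concentration for full growth arrest is given as TGI.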
Assays:
Experiment in all cases: NCI tumour cell line growth inhibition, 48 h
[1] = tested on: SNB-78 CNS
[2] = tested on: DMS 273 small cell lung
[3] = tested on: DLD-1 colon
[4] = tested on: M19-MEL melanoma
[5] = tested on: DMS 114 small cell lung
[6] = tested on: RXF-631 renal
[7] = tested on: P388 leukemia
[8] = tested on: P388/ADR leukemia
[9] = tested on: SN12K1 renal

| Structure (SMILES) | TGI [1] [µM] | TGI [2] [µM] | TGI [3] [µM] | TGI [4] [µM] | TGI [5] [µM] | TGI [6] [µM] | TGI [7] [µM] | TGI [8] [µM] | TGI [9] [µM] |
| --- | --- | --- | --- | --- | --- | --- | --- | --- | --- |
| CC(C)(C)C1CCC2(CC1)c1[nH]c3ccccc3c1C1(CCC(C(C)(C)C)CC1)c1[nH]c3ccccc3c12 (centres undefined) | > 100 | > 100 | > 100 | > 100 | 57.3 |  |  |  |  |
| O=[N+]([O-])c1ccc(-c2ccc(-c3csc(Nc4ccccn4)n3)o2)cc1 | > 100 | > 100 | > 100 | > 100 |  | > 100 |  |  |  |
| COc1c(Br)cc(CC(N)=O)c(O)c1Br | > 100 | > 100 | > 100 | > 100 | > 100 | > 100 |  |  |  |
| C=CCOCCCCC(C(C)=O)C(=O)OC (centres undefined) | > 100 |  | > 100 | > 100 |  |  |  |  |  |
| COC(=O)C1CC2(c3ccccc3)C(=O)c3ccccc3N2O1 (centres undefined) | > 100 | > 100 | > 100 | > 100 | > 100 |  |  |  |  |
| NC(N)=Nc1ncccc1[N+](=O)[O-] | > 100 | > 100 | > 100 |  | 30.5 |  | > 100 | > 100 | > 100 |
| COC1(OC)CCCCC2c3cccc(OC(C)=O)c3C21OC(C)=O (centres undefined) | > 100 | > 100 | > 100 | > 100 | > 100 |  |  |  |  |
| O=C(O)C(CO)NC(=O)n1c2ccccc2c2ccccc21 (centres undefined) |  | > 100 | > 100 | > 100 | > 100 |  |  |  |  |
| O=C(CC1=NCCN1)c1ccccc1 | > 750 | > 750 | > 750 | > 750 | > 750 |  | > 750 | > 750 | > 750 |
| O=C(O)C(CS)N=c1c2ccccc2n(O)c2ccccc12 (centres undefined) | > 100 | > 100 | > 100 | > 100 | > 100 | > 100 |  |  |  |

— PubChem BioAssay (NCI)
